According to patent US12521356B2, “Compositions and methods for treating pain, inflammation, infection, malaria, and sepsis” (Duke University, priority 2018, dated 2026):
Read-outs that look alike come from different tables or passages of the source.

Legend:
[1] = molecular target: T1, GPR37 (Homo sapiens, UniProt O15354); test: Ca2+ imaging (Fura-2AM) in HEK293 cells transfected with human GPR37 cDNA; assay type: cell-based; details: for intracellular Ca2+ (iCa2+) increase: 3 min, GPR37-expressing HEK293 cells; for effect on NPD1-induced iCa2+ increase: NPD1 30 nM, PTX 1 μg/mL 16 h before, thapsigargin 1 μM 3 min, EGTA 10 mM 3 min
T1 construct: host or cells: HEK293 flip-in cells
T1 sequence (O15354 27-613): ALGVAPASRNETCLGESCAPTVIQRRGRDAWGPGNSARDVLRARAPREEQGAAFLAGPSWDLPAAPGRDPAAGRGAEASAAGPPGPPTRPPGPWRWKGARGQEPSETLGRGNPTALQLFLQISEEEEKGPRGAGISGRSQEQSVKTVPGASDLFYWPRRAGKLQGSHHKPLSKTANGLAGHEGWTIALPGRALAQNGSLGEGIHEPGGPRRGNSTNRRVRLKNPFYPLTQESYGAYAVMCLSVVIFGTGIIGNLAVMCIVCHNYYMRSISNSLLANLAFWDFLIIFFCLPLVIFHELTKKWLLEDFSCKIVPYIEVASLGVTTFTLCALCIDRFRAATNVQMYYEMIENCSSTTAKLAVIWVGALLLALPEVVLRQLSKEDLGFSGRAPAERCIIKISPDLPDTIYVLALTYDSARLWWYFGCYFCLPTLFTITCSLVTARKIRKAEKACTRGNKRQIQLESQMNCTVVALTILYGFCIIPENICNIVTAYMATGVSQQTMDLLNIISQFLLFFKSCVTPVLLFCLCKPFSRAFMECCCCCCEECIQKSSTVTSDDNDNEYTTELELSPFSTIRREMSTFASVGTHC
Experimental: (§1) HEK cell culture and transfection. HEK293 flip-in cell line was purchased from Duke Cell Culture Facility. Cells were cultured in high glucose (4.5 g/L) Dulbecco's Modified Eagle's Medium containing 10% (v/v) fetal bovine serum (Gibco). Transfection (2 μg cDNA) was performed with Lonza electroporation (Lonza) at 70% confluency and the transfected cells were cultured in the same growth medium for 48 h before use. The hGPR37-V5 pLenti304 plasmids were obtained from DNASU (Tempe, AZ), and hGPR32, hChemR23 and hALX pcDNA3 plasmids were provided by Dr. Serhan from Harvard Medical School, Boston.
(§2) Calcium imaging. HEK 293 cells, with or without transfection of Gpr37, GPR32, ChemR23 or ALX1 cDNA, were loaded with 5 μM Fura-2AM (Invitrogen) for 1 hour and then were resuspended in normal external buffer (140 NaCl, 5 KCl, 2 CaCl2, 2 MgCl2, 10 HEPES, in mM, titrated to pH 7.4 with NaOH) or external Ca^2+-free buffer (140 NaCl, 2 MgCl2, 5 EGTA, 10 HEPES, in mM, titrated to pH 7.4 with NaOH). Peritoneal macrophages, collected from WT and Gpr37 KO mice, were loaded with 5 μM […] (Invitrogen) for 1 hour and then were resuspended in normal external buffer. Images of the HEK 293 cells and macrophages with the excitation wavelength of 340 nm and 380 nm were captured with a cooled Digital CMOS camera (ORCA-Flash 4.0, Hamamatsu Photonics K.K, Japan). The ratio of fluorescence intensity of the two wavelengths in each experiment was analyzed using MetaFluor (Molecular Devices). The Shutter speed and wavelength was controlled by Lambda DG-4 system (Sutter instrument Co., Novato, CA). Values from each of the experiments were normalized to the baseline ratio of 340/380 nm.
In order to investigate how GPR37 regulates intracellular signaling, we conducted Ca^2+ imaging in HEK293 cells that overexpress GPR37. […] Thus, we hypothesized TX14 and SPM may activate the same receptors and elicit similar intracellular responses. We transfected HEK293 cells with human GPR37 cDNA, loaded these cells with Ca^2+ dye Fura-2AM, and stimulated them with TX14 and various SPMs, using ionomycin (2 μM) as a positive control for Ca^2+ influx (FIG. 2A, FIG. 2B, FIG. 2C).

[2] = molecular target: T2, ALX (Homo sapiens, UniProt P25090); test: Ca2+ imaging (Fura-2AM) in HEK293 cells transfected with ALX cDNA; assay type: cell-based; details: HEK293 cells expressing ALX
T2 construct: host or cells: HEK293 flip-in cells
T2 sequence (P25090 1-351): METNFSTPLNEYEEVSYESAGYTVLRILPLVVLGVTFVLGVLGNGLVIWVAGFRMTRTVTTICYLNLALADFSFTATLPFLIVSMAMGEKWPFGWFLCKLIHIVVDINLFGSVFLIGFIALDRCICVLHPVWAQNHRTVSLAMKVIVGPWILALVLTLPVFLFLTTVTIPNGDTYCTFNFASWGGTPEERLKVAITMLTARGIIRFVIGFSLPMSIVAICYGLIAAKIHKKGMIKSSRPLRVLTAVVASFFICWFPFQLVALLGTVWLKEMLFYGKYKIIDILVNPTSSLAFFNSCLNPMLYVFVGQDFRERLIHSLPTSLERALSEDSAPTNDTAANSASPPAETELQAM
Excerpt: (§3) FIG. 10A-FIG. 10C. Characterization of intracellular Ca^2+ changes in HEK293 cells expressing ChemR23, GPR32, and ALX. Ca^2+ imaging with Fura-2AM indicator showing iCa^2+ levels in HEK293 cells transfected with ChemR23 (FIG. 10A), GPR32 (FIG. 10B), and ALX (FIG. 10C) cDNAs. Note that NPD1 fails to elicit iCa^2+ increase in HEK293 cells expressing ChemR23, GPR32, and ALX. […] ATP is included as a positive control. *P<0.05, compared with baseline n=44˜97 cells from 3 cultures. All the data are expressed as mean±s.e.m.
as §1, §2
Several SPM receptors have been identified such as ChemR23 for RvE1, GPR32 for RvD1, and ALX for lipoxin A. We transfected human cDNAs of ChemR23, GPR32, and ALX in HEK293 cells and checked Ca^2+ responses following the treatment of each SPM.

[3] = test system: peritoneal macrophages (pMΦ); test: Phagocytosis assay with fluorescence-labeled zymosan particles in peritoneal macrophages; assay type: cell-based, mouse
Experimental: (§4) Peritoneal macrophage culture. Peritoneal macrophages were collected by peritoneal lavage with 10 ml warm PBS containing of 1 mM EDTA. Cells were incubated in DMEM supplemented with 10% FBS at 37° C. for 2 h in petri dish and washed with PBS to eliminate non-adherent cells. The adherent cells were used as peritoneal macrophages. Peritoneal macrophages were used after 3 days of culture.
Phagocytosis assay. The phagocytosis assay was modified from a previously described protocol (Sommer C, and Kress M. NeurosciLett. 2004, 361, 184-187). pHrodo® Red Zymosan Bioparticles (diameter, 3 μm, Thermo scientific, Catalog: P35364) were rinsed and reconstituted in RPMI medium. Particles were centrifuged (1 min at 100 g) onto adherent peritoneal macrophages at a ratio of 10:1 to synchronize binding and internalization. After 30 min incubation at 37° C., non-adherent beads were removed with cold PBS and cells were fixed with 2% formalin. Four optic fields were photographed with epifluorescence microscopy. Quantification of zymosan particles ingested by MΦ was conducted on at least 200 macrophages/condition/well, and triplicates were included for statistical analysis.
We investigated whether iCa^2+ increases would trigger phagocytosis of pathogens such as zymosan by macrophages. Zymosan is a well-studied pathogen and activates TLR2 to trigger inflammation and inflammatory pain in rodents after intraplantar injection. We tested phagocytosis in pMΦ using fluorescence-labeled zymosan particles.

[4] = molecular target: T3, GPR37 (Mus musculus, UniProt Q9QY42); test: Ca2+ imaging (Fluo-4AM) in peritoneal macrophages (pMΦ) from WT and Gpr37−/− mice; assay type: cell-based; details: PTX 1 μg/mL, 16 h; pMΦ
T3 sequence (Q9QY42 27-600): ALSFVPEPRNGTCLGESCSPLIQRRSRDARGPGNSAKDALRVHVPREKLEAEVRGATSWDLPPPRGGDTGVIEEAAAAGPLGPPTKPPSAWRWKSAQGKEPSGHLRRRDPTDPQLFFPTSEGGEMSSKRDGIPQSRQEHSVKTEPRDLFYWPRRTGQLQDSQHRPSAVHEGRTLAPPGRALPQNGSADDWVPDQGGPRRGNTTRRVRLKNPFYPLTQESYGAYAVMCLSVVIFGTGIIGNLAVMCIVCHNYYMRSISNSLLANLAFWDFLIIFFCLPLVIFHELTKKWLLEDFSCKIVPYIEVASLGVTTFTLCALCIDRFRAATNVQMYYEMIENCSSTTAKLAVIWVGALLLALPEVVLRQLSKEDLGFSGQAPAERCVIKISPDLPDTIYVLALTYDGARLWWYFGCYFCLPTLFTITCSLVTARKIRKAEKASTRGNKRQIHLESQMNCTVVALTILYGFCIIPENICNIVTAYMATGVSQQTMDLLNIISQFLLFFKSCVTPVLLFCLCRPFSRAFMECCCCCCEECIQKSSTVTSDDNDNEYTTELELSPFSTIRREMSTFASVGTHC
Experimental: as §4, §2
(§5) Next, we conducted GPR37-mediated Ca^2+ imaging in native pMΦ from WT and Gpr37^−/− mice using Fluo-4AM as a Ca^2+ indicator, since this dye works better than Fura-2AM for pMΦ. […] As compared to iCa^2+ increase in GPR37-expressing HEK293 cells, NPD1 trigger a slow-onset but more persistent Ca^2+ response in pMΦ (FIG. 2B and FIG. 2G). A relatively rapid calcium response in HEK293 cells may result from over-expression of GPR37. A sustained iCa^2+ increase in pMΦ may result from the expression of transient receptor potential (TRP) ion channels in these immune cells. It is noteworthy that macrophages express TRPV2 or TRPM2, which are involved in phagocytosis during bacterial infection. […] NPD1-triggered iCa^2+ increase in pMΦ is also Gi-dependent, since PTX blocked this increase (FIG. 2H). For comparison, ATP-evoked iCa^2+ increase was not altered in GPR37-deficient pMΦ (FIG. 2H).

[5] = molecular target: T4, ChemR23 (Homo sapiens, UniProt Q99788); test: Ca2+ imaging (Fura-2AM) in HEK293 cells transfected with ChemR23 cDNA; assay type: cell-based; details: 1 μM; HEK293 cells expressing ChemR23
T4 construct: host or cells: HEK293 flip-in cells
T4 sequence (Q99788 1-373): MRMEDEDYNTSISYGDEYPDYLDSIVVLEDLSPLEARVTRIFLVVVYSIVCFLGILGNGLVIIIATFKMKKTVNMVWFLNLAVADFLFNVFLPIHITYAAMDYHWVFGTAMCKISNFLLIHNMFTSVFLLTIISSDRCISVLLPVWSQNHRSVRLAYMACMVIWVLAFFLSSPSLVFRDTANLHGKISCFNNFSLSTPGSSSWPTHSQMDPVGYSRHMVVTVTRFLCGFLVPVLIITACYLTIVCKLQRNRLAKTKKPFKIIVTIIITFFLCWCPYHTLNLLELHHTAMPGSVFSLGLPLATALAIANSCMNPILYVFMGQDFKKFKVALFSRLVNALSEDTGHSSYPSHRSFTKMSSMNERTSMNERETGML
Excerpt: as §3, §1
as §2, with “Values from each of the experiments were normalized to the baseline ratio of 340/380 nm.” left out

[6] = molecular target: T5, GPR32 (Homo sapiens, UniProt O75388); test: Ca2+ imaging (Fura-2AM) in HEK293 cells transfected with GPR32 cDNA; assay type: cell-based; details: 1 μM; HEK293 cells expressing GPR32
T5 construct: host or cells: HEK293 flip-in cells
T5 sequence (O75388 whole entry): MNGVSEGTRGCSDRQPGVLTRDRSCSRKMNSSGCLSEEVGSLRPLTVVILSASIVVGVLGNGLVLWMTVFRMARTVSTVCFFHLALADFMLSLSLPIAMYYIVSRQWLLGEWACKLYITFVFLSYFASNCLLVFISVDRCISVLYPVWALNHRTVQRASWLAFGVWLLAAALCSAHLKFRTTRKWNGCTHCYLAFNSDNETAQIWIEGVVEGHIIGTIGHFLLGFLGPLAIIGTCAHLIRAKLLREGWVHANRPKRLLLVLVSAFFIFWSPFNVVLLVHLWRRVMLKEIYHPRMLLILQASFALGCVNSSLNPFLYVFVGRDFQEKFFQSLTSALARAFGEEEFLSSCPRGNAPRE
Excerpt: as §3, §1
as §2, with “Values from each of the experiments were normalized to the baseline ratio of 340/380 nm.” left out

[7] = test system: GPR37; test: Ca2+ imaging (Fluo-4AM) in peritoneal macrophages (pMΦ) from WT and Gpr37−/− mice; assay type: cell-based, mouse; details: GPR37-deficient pMΦ vs WT
Experimental: as §4, §2, §5

[8] = LY294002 50 μM, U0126 10 μM, PTX 1 μg/mL, BAPTA-AM 10 μM

CC/C=C\C[C@H](O)[C@H](O)/C=C/C=C/C=C\C=C\[C@@H](O)C/C=C\CCC(=O)O [RvD2]
intracellular Ca2+ (iCa2+) increase ([1]; 100 nM): failed to increase iCa^2+

CCCCC[C@H](O)/C=C/C=C\C=C\C=C\[C@@H](O)[C@@H](O)CCCC(=O)O [lipoxin A1]
intracellular Ca2+ (iCa2+) increase ([1]; 100 nM): failed to increase iCa^2+ | iCa2+ increase / Ca2+ response [2]: failed to evoke Ca^2+ responses

Annexin 1: SPM ligand for ALX, from Anaspec (AMVSEFLKQAWFIENEEQEYVQTVK)
Ca2+ response ([2]; 100 nM): fail to evoke Ca^2+ responses

CC(=O)OCOC(=O)CN(CC(=O)OCOC(C)=O)c1ccccc1OCCOc1ccccc1N(CC(=O)OCOC(C)=O)CC(=O)OCOC(C)=O [BAPTA-AM]
effect on NPD1-induced iCa2+ increase [1]: inhibited | effect on baseline phagocytosis ([3]; BAPTA-AM 10 μM): blocked | effect on NPD1-induced phagocytosis [3, 8]: blocked

pertussis toxin
effect on NPD1-triggered iCa2+ increase [4]: blocked | effect on NPD1-induced iCa2+ increase [1]: completely blocked | effect on NPD1-induced phagocytosis [3, 8]: inhibited

C[C@H](CCC(=O)O)C[C@H](C)C[C@H](C)C(=O)/C=C(\O)[C@H](C)C[C@H](C)C/C=C/[C@@H](C)[C@@H](O)[C@@H](C)[C@@H](O)C[C@@H]1CC[C@@](C)([C@H]2CC[C@@](C)([C@@H](C)O)O2)O1 [ionomycin]
phagocytosis ([3]; 2 μM, both WT and Gpr37 KO mice): markedly increased phagocytosis

CC/C=C\C/C=C\C/C=C\C/C=C\C/C=C\CCCC(=O)O [EPA]
Ca2+ response [5]: fail to evoke Ca^2+ responses | Ca2+ response [6]: fail to evoke Ca^2+ responses | intracellular Ca2+ (iCa2+) increase ([1]; 1 μM): Neither did the precursors of these SPMs (DHA and EPA), at a much higher concentration (1 μM), evoked calcium responses | Ca2+ response ([2]; 1 μM): fail to evoke Ca^2+ responses

O=C(O)CN(CCOCCOCCN(CC(=O)O)CC(=O)O)CC(=O)O [EGTA]
effect on NPD1-induced iCa2+ increase [1]: inhibited

Nc1ncnc2c1ncn2[C@@H]1O[C@H](COP(=O)(O)OP(=O)(O)OP(=O)(O)O)[C@@H](O)[C@H]1O [ATP]
ATP-evoked iCa2+ increase [7]: not altered

C/C=C(/C)C(=O)O[C@H]1C(C)=C2[C@H]([C@@H]1OC(=O)CCCCCCC)[C@@](C)(OC(C)=O)C[C@H](OC(=O)CCC)[C@@]1(O)[C@H]2OC(=O)[C@@]1(C)O [thapsigargin]
effect on NPD1-induced iCa2+ increase [1]: inhibited

N#CC(=C(/N)Sc1ccccc1N)/C(C#N)=C(\N)Sc1ccccc1N [U0126]
effect on NPD1-induced phagocytosis [3]: inhibited
